Experimental findings from ChEMBL document CHEMBL5241070, “Overview of all-trans-retinoic acid (ATRA) and its analogues: Structures, activities, and mechanisms in acute promyelocytic leukaemia” (Eur J Med Chem, 2021) are described below.

Converted amounts (≈) assume the structure as drawn.

In general, MIC refers to the smallest concentration in the dilution series that meets the test's criterion for growth inhibition. The term IC50 denotes the concentration needed to halve the response being measured. A word on the CC50: it is the concentration that lowers cell viability or growth by half. For orientation: GI50 means the concentration giving 50% growth inhibition.

One experiment concerns Staphylococcus aureus. Description: Antibacterial activity against methicillin-resistant Staphylococcus aureus assessed as bacterial growth inhibition. Format: functional.
Experiment [1] deals with ME-180. Description: Antiproliferative activity against human ME-180 cells assessed as inhibition of cell growth by [3H]-thymidine incorporation based liquid scintillation counter analysis. Format: functional.
The next experiment concerns HL-60. Description: Antiproliferative activity against human HL-60 cells assessed as cell growth inhibition measured after 72 hrs by trypan blue staining based assay. Format: functional.
For the next experiment, the system named is SCL-1. Description: Induction of apoptosis in human SCL-1 cells by flow cytometry assay. The experiment is classed as functional. The conditions noted are these: read-out: MEC.
In a further experiment the test system is MCF7. Description: Antiproliferative activity in human MCF7 cells assessed as cell growth inhibition measured after 72 hrs by cell counting assay. The experiment is classed as functional.
In the next experiment the test system is HT-29. Description: Antiproliferative activity against human HT-29 cells assessed as inhibition of cell growth measured after 48 hrs by MTT assay. Format: functional.
Experiment [2] concerns ME-180. Description: Antiproliferative activity against human ME-180 cells assessed as inhibition of cell growth. The experiment is classed as functional.
Experiment [3] is described as follows: Antiproliferative activity against human U87MG Human EGFR vIII cells assessed as inhibition of cell growth measured after 24 hrs by MTT assay. Format: functional.
A further experiment concerns Y79. Description: Antiproliferative activity against human Y79 cells assessed as inhibition of cell growth measured after 72 hrs by MTT assay. Format: functional.
Experiment [4] in a line: Antiproliferative activity against human A2774 cells assessed as inhibition of cell growth measured after 72 hrs by XTT assay. The experiment is classed as functional. On the technique in general: Formazan colour is commonly taken as a measure of viable cells.
A further experiment relates to A-375. Description: Antiproliferative activity against human A-375 cells assessed as inhibition of cell growth measured after 24 hrs by WST-8 assay. Format: functional.
Experiment [5] can be described thus: Antiproliferative activity against human UM-SCC-38 cells assessed as inhibition of cell growth. Format: functional, cell-based.
The subject of a further experiment is NB-4. The experiment is described as follows: Antiproliferative activity against human NB-4 cells assessed as inhibition of cell growth measured after 96 hrs by MTT assay. The experiment is classed as functional.
A further experiment has as its system MOLM-13. The experiment is described as follows: Antiproliferative activity against human MOLM-13 cells assessed as inhibition of cell growth measured after 96 hrs by WST-8 assay. Format: functional.
Another experiment has as its system PC-3. Description: Antiproliferative activity against human PC-3 cells assessed as inhibition of cell growth measured after 24 hrs by MTT assay. The experiment is classed as functional.
In a further experiment the test system is MDA-MB-231. The experiment is described as follows: Antiproliferative activity against human MDA-MB-231 cells assessed as inhibition of cell growth. Format: functional, cell-based.
Another experiment has as its system A2780. The experiment is described as follows: Antiproliferative activity against human A2780 cells assessed as inhibition of cell growth measured after 72 hrs by SRB assay. The experiment is classed as functional, cell-based. The conditions noted are these: A2780, 72 h. A general note: Sulforhodamine B stains cellular protein and so reports cell mass.
Experiment [6] concerns ME-180. The experiment is described as follows: Antiproliferative activity against human ME-180 ells assessed as inhibition of cell growth. Format: functional, cell-based.

Turning to `O=C(O)c1ccc2cc(-c3ccc(O)c(C45CC6CC(CC(C6)C4)C5)c3)ccc2c1` [O-DEMETHYLATED ADAPALENE], in the experiment on Staphylococcus aureus, the MIC was 1 µg/mL (≈ 2.51 µM).

With `CC(/C=C/C=C(\C)c1cc(C(C)(C)C)cc(C(C)(C)C)c1)=C\C(=O)O`, the IC50 in the experiment on ME-180 [1] came to 1 nM.

On to `CC1=C(/C=C/C(C)=C/C=C/C(C)=C/C(=O)O)C(C)(C)CCC1` [TRETINOIN], for which the half-maximal cytotoxic concentration (CC50) stood at 23 nM in the experiment with HL-60; 20 nM in the experiment on MCF7; 4.3 µM in the experiment on HT-29; 80 nM with ME-180 [2]; 82 nM in experiment [4]; 1500 nM in the experiment with NB-4. In addition, the CC50 with MOLM-13 came to 1240 nM; with PC-3 it was 12.7 µM. In addition, the minimal effective concentration in the experiment with SCL-1 was not above 10 µM. Also, the MCC in experiment [3] is 40 µM; with Y79, 2000 nM; in the experiment with A-375, more than 100 µM. Also, the IC50 in experiment [5] is 5 µM.

With `CCCC(=O)OCc1ccc(OC(=O)/C=C(C)/C=C/C=C(C)/C=C/C2=C(C)CCCC2(C)C)cc1`, in the experiment with MDA-MB-231, the 50% growth inhibitory concentration (GI50) stood at 10 nM.

As for `O=C(O)/C=C/c1ccc(-c2ccc(O)c(C34CC5CC(CC(C5)C3)C4)c2)cc1` [ADAROTENE], the MIC with Staphylococcus aureus is 1 µg/mL (≈ 2.67 µM).

Consider `CC1=C(/C=C/C(C)=C/C=C/C(C)=C/C(=O)Nc2ccc(O)cc2)C(C)(C)CC/C1=N\OCC(=O)O`, for which the half-maximal inhibitory concentration (IC50) with A2780 amounted to 970 nM.

In the case of `O=C(O)c1ccc(-c2ccc3cc(O)c(C45CC6CC(CC(C6)C4)C5)cc3c2)cc1`, in the experiment on Staphylococcus aureus, the MIC was 1 µg/mL (≈ 2.51 µM).

Regarding `CC1=C(/C=C/C(C)=C/C=C/C(C)=C/C(=O)Nc2ccc(F)cc2)C(C)(C)CCC1n1ccnc1` (stereo unspecified), the IC50 in the experiment with MDA-MB-231 came to 890 nM.

Turning to `C/C(=C/C=C/C(C)=C/C(=O)O)c1cc(C(C)(C)C)cc(C(C)(C)C)c1`, the half-maximal inhibitory concentration (IC50) in the experiment on ME-180 [6] came out at 20 nM.
